Legend:
Format in all cases: cell-based
[1] = system: SK-BR-3 cells (HER2 overexpressing cell line); assay: SK-BR-3 cell proliferation inhibitory activity (CellTiter-Glo, 120 hours); settings: Homo sapiens
How it was run: (§1)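 Three independent repeats measured growth inhibition across 11 concentrations. The top final concentration was 10 μM for SK-BR-3 and BT-474, 5 μM for N-87 and 45 μM for HaCaT. Growth relative to control, read by luminescence, yielded GI50.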

[2] = system: N-87 cells (HER2 overexpressing cell line); assay: N-87 cell proliferation inhibitory activity (CellTiter-Glo, 72 hours)
Procedure: To evaluate the cell proliferation inhibitory activity of the compound according to the present invention on HER2 and EGFR kinases, the following method was performed using HER2 overexpressing cell lines (SK-BR-3, BT-474, and N-87) and EGFR expressing cell line (HaCaT).
McCOY'S 5A supplemented with 10% FBS was used for SK-BR-3 cells, RPMI-1640 medium supplemented with 20% FBS was used for BT-474 cancer cells, and RPMI-1640 medium supplemented with 10% FBS was used for N-87 cancer cells. DMEM supplemented with 10% FBS was used for HaCaT cells.
For SK-BR-3 cells, 5000 cells were aliquoted into each well of a white clear bottom 96 well plate (Corning) 48 hours before treatment with the compounds of Examples. For BT-474 cells, 5000 cells were aliquoted into each well of a white clear bottom 96 well plate (Corning) 48 hours before treatment with the compounds of Examples. For N-87 cells, 5000 cells were aliquoted into each well of a white clear bottom 96 well plate (Corning) 24 hours before treatment with the compounds of Examples. For HaCaT cells, 3000 cells were aliquoted into each well of a white clear bottom 96 well plate (Corning) 24 hours before treatment with the compounds of Examples. For SK-BR-3 cells and BT-474 cells, the compounds of Examples were diluted in dimethyl sulfoxide (three-fold dilution, a total of 11 concentrations) and injected each in an amount of 1 μl to a final concentration of 0.2 nM to 10 μM. For N-87 cells, the compounds of Examples were diluted in dimethyl sulfoxide (five-fold dilution, a total of 11 concentrations) and injected each in an amount of 0.5 μl to a final concentration of […] to 5 μM. For HaCaT cells, the compounds of Examples were diluted in dimethyl sulfoxide (three-fold dilution, a total of 11 concentrations) and injected each in an amount of 0.5 μl to a final concentration of 0.8 nM to 45 μM. For the measurement of living cells, the cells were stored at room temperature for 10 minutes using CellTiter-Glo cell viability reagent (Promega) after a certain period of time (SK-BR-3: 120 hours, BT-474: 120 hours, N-87: 72 hours, and HaCaT: 72 hours) post treatment with the compounds of Examples, and the luminescence intensity thereof was measured using a reader (SynergyNeo, Biotek). Each test was repeated three times.
The result values were calculated as a cell growth rate (%) compared to those of the control group. A graph was created using the GraphPad Prism version 5.0 program, and GI50 values were calculated.

[3] = system: HaCaT cells (EGFR expressing cell line); assay: HaCaT cell proliferation inhibitory activity (CellTiter-Glo, 72 hours); settings: Homo sapiens
How it was run: as §1

[4] = system: BT-474 cells (HER2 overexpressing cell line); assay: BT-474 cell proliferation inhibitory activity (CellTiter-Glo, 120 hours); settings: Homo sapiens
How it was run: as §1

| Compound | GI50 [1] | GI50 [2] | GI50 [3] | GI50 [4] |
| --- | --- | --- | --- | --- |
| C=CC(=O)N1CC[C@@H](Oc2cc3c(Nc4cc(-c5ccc(F)cc5F)ccc4OC)ncnc3cc2OC)[C@H](F)C1 (relative stereo) [Example 171, 1-(trans-4-((4-((2′,4′-difluoro-4-methoxy-[1,1′-biphenyl]-3-yl)amino)-7-methoxy-quinazolin-6-yl)oxy)-3-fluoropiperidin-1-yl)prop-2-en-1-one] | ≤ 150 nM | ≤ 150 nM | ≤ 150 nM | ≤ 150 nM |
| C=CC(=O)N1CC[C@H](Oc2cc3c(Nc4cc(-c5ccco5)ccc4OC)ncnc3cc2OC)[C@H](F)C1 (relative stereo) [Example 181, 1-(cis-3-fluoro-4-((4-((5-(furan-2-yl)-2-methoxyphenyl)amino)-7-methoxy-quinazolin-6-yl)oxy)piperidin-1-yl)prop-2-en-1-one] | ≤ 150 nM | ≤ 150 nM | ≤ 150 nM | ≤ 150 nM |
| C=CC(=O)N1CC[C@H](Oc2cc3c(Nc4cc(-c5ccc(F)cc5F)ccc4OC)ncnc3cc2OC)[C@H](F)C1 (relative stereo) [Example 182, 1-(cis-4-((4-((2′,4′-difluoro-4-methoxy-[1,1′-biphenyl]-3-yl)amino)-7-methoxy-quinazolin-6-yl)oxy)-3-fluoropiperidin-1-yl)prop-2-en-1-one] | ≤ 150 nM | ≤ 150 nM | ≤ 150 nM | ≤ 150 nM |
| C=CC(=O)N1CC(Oc2cc3c(Nc4cc(-c5cccc(C(F)(F)F)c5F)ccc4OC)ncnc3cc2OC)C1 [Example 17, 1-(3-((4-((2′-fluoro-4-methoxy-3′-(trifluoromethyl)-[1,1′-biphenyl]-3-yl)amino)-7-methoxy-quinazolin-6-yl)oxy)azetidin-1-yl)prop-2-en-1-one] | ≤ 150 nM | ≤ 150 nM | 150 to 1000 nM | ≤ 150 nM |
| C=CC(=O)N1CC(Oc2cc3c(Nc4cc(-c5cccc(C#N)c5F)ccc4OC)ncnc3cc2OC)C1 [Example 21, 3'-((6-((1-acryloylazetidin-3-yl)oxy)-7-methoxy-quinazolin-4-yl)amino)-2-fluoro-4′-methoxy-[1,1′-biphenyl]-3-carbonitrile] | ≤ 150 nM | ≤ 150 nM | ≤ 150 nM | ≤ 150 nM |
| C=CC(=O)N1CC(Oc2cc3c(Nc4cc(-c5ccc(F)nc5)ccc4OC)ncnc3cc2OC)C1 [Example 22, 1-(3-( (4-((5-(6-fluoropyridin-3-yl)-2-methoxyphenyl)amino)-7-methoxy-quinazolin-6-yl)oxy)azetidin-1-yl)prop-2-en-1-one] | ≤ 150 nM | ≤ 150 nM | ≤ 150 nM | ≤ 150 nM |
| C=CC(=O)N1CC(Oc2cc3c(Nc4cc(-c5ccccc5F)ccc4OC)ncnc3cc2OC)C1 [Example 24, 1-(3-((4-((2′-fluoro-4-methoxy-[1,1′-biphenyl]-3-yl)amino)-7-methoxy-quinazolin-6-yl)oxy)azetidin-1-yl)prop-2-en-1-one] | ≤ 150 nM | ≤ 150 nM | ≤ 150 nM | ≤ 150 nM |
| C=CC(=O)N1CCC(Oc2cc3c(Nc4cc(-c5ccc(F)cc5)ccc4OC)ncnc3cc2OC)CC1 [Example 67, 1-(4-((4-((4′-fluoro-4-methoxy-[1,1′-biphenyl]-3-yl)amino)-7-methoxy-quinazolin-6-yl)oxy)piperidin-1-yl)prop-2-en-1-one] | ≤ 150 nM | ≤ 150 nM | 150 to 1000 nM | ≤ 150 nM |
| C=CC(=O)N1CCC(Oc2cc3c(Nc4cc(-c5ccsc5)ccc4OC)ncnc3cc2OC)CC1 [Example 79, 1-(4-((7-methoxy-4-((2-methoxy-5-(thiophen-3-yl)phenyl)amino)quinazolin-6-yl)oxy)piperidin-1-yl)prop-2-en-1-one] | ≤ 150 nM | ≤ 150 nM | ≤ 150 nM | ≤ 150 nM |
| C=CC(=O)N1CCC(F)(F)C(Oc2cc3c(Nc4cc(-c5ccco5)ccc4OC)ncnc3cc2OC)C1 (stereo not shown) [Example 113, 1-(4,4-difluoro-3-((4-((5-(furan-2-yl)-2-methoxyphenyl)amino)-7-methoxy-quinazolin-6-yl)oxy)piperidin-1-yl)prop-2-en-1-one] | ≤ 150 nM | ≤ 150 nM | ≤ 150 nM | ≤ 150 nM |
| C=CC(=O)N1CCC(Oc2cc3c(Nc4cc(-c5c(F)cc(F)cc5F)ccc4OC)ncnc3cc2OC)CC1 [Example 190, 1-(4-((7-methoxy-4-((2′,4′,6′-trifluoro-4-methoxy-[1,1′-biphenyl]-3-yl)amino)quinazolin-6-yl)oxy)piperidin-1-yl)prop-2-en-1-one] |  | ≤ 150 nM | ≤ 150 nM | ≤ 150 nM |
| C=CC(=O)N1CCC(Oc2cc3c(Nc4cc(-c5ccc(F)cc5Cl)ccc4OC)ncnc3cc2OC)CC1 [Example 191, 1-(4-((4-((2′-chloro-4′-fluoro-4-methoxy-[1,1′-biphenyl]-3-yl)amino)-7-methoxy-quinazolin-6-yl)oxy)piperidin-1-yl)prop-2-en-1-one] |  | ≤ 150 nM | ≤ 150 nM | ≤ 150 nM |
| C=CC(=O)N1CCC(Oc2cc3c(Nc4cc(-c5cc(C(F)(F)F)ccc5F)ccc4OC)ncnc3cc2OC)CC1 [Example 192, 1-(4-((4-((2′-fluoro-4-methoxy-5′-(trifluoromethyl)-[1,1′-biphenyl]-3-yl)amino)-7-methoxy-quinazolin-6-yl)oxy)piperidin-1-yl)prop-2-en-1-one] |  | ≤ 150 nM | ≤ 150 nM | ≤ 150 nM |
| C=CC(=O)N1CCC(Oc2cc3c(Nc4cc(-c5cccc(C=C)c5)ccc4OC)ncnc3cc2OC)CC1 [Example 215, 1-(4-((7-methoxy-4-((4-methoxy-3′-vinyl-[1,1′-biphenyl]-3-yl)amino)quinazolin-6-yl)oxy)piperidin-1-yl)prop-2-en-1-one] |  | ≤ 150 nM | 150 to 1000 nM | ≤ 150 nM |
| C=CC(=O)N1CCC(Oc2cc3c(Nc4cc(-c5cccc(NC(C)=O)c5)ccc4OC)ncnc3cc2OC)CC1 [Example 224, N-(3′-((6-((1-acryloyl-piperidin-4-yl)oxy)-7-methoxy-quinazolin-4-yl)amino)-4′-methoxy-[1,1′-biphenyl]-3-yl)acetamide] |  | ≤ 150 nM | ≤ 150 nM | ≤ 150 nM |
| C=CC(=O)N1CCC(Oc2cc3c(Nc4cc(-c5cccc(N6CCC6)c5)ccc4OC)ncnc3cc2OC)CC1 [Example 225, 1-(4-((4-((3′-(azetidin-1-yl)-4-methoxy-[1,1′-biphenyl]-3-yl)amino)-7-methoxy-quinazolin-6-yl)oxy)piperidin-1-yl)prop-2-en-1-one] |  | ≤ 150 nM | > 1000 nM | 150 to 1000 nM |
| C=CC(=O)N1CCC(Oc2cc3c(Nc4cc(-c5ccc(F)c(NC(C)=O)c5)ccc4OC)ncnc3cc2OC)CC1 [Example 226, N-(3′-((6-((1-acryloyl-piperidin-4-yl)oxy)-7-methoxy-quinazolin-4-yl)mino)-4-fluoro-4′-methoxy-[1,1'-biphenyl]-3-yl)acetamide] |  | ≤ 150 nM | > 1000 nM | ≤ 150 nM |
| C=CC(=O)N1CCC(Oc2cc3c(Nc4cc(-c5ccc(F)c(N(C)C)c5)ccc4OC)ncnc3cc2OC)CC1 [Example 229, 1-(4-((4-((3′-(dimethylamino)-4′-fluoro-4-methoxy-[1,1′-biphenyl]-3-yl)amino)-7-methoxy-quinazolin-6-yl)oxy)piperidin-1-yl)prop-2-en-1-one] |  | ≤ 150 nM | 150 to 1000 nM | ≤ 150 nM |
| C=CC(=O)N1CCC(Nc2cc3c(Nc4cc(-c5ccc(F)cc5F)ccc4OC)ncnc3cc2OCC)CC1 [Example 301, 1-(4-((4-((2′,4′-difluoro-4-methoxy-[1,1′-biphenyl]-3-yl)amino)-7-ethoxyquinazolin-6-yl)amino)piperidin-1-yl)prop-2-en-1-one] |  | ≤ 150 nM | ≤ 150 nM | ≤ 150 nM |

Reference: patent US20240246940A1, “HETEROARYL DERIVATIVE COMPOUND AND USE THEREOF” (VORONOI INC., priority 2021, published 2024)
